The results in this text go back to US6878722B2, “Substituted cycloalkyl P1′ hepatitis C virus inhibitors” (Bristol-Myers Squibb Company, priority 2002, dated 2005).

Where two headings read alike, the source gives them in different places.

Assay [1] deals with T1, HCV NS3/4A protease complex (BMS strain, genotype 1a) (Hepatitis C virus genotype 1a, UniProt P27958, C1454S).
T1 construct: DNA encoding the recombinant HCV NS3/4A protease complex (amino acids 1027 to 1711) for these strains; inferred from the pET21b vector and Ni-NTA purification; made in house; host or cells: Escherichia coli BL21 (DE3), pET21b
The experiment in a line: Recombinant HCV NS3/4A protease complex FRET peptide assay, BMS strain. In kind it is biochemical. Put shortly:
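Recombinant NS3/4A complex (aa 1027–1711) with C-terminal three-lysine tail, C1711G and C1454S, expressed in E. coli BL21(DE3) and purified by Ni-NTA then Superdex-S200. Inhibition of the complex from each strain measured in vitro by FRET peptide cleavage.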

Assay [2] has as its system HCV replicon in Huh7 cells. The assay is described as follows: HCV replicon cell-based assay (FRET). The settings on record: Hepatitis C virus. The method, boiled down:
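Huh7 cells stably carrying a genotype 1b HCV replicon (IRES-neo-EMCV-IRES-NS3-NS5B) were treated with compound for 4 days at 37 °C in 0.5% DMSO final. Lysates containing 10 μM FRET peptide RET S1 were read kinetically at 340/490 nm to give NS3 protease activity, from which EC50 was derived.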

T1 sequence (P27958 1658-1714, looked up, stated change not applied): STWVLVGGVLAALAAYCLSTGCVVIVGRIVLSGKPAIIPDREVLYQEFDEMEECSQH
T1 sequence (P27958 1027-1657, looked up, stated change not applied): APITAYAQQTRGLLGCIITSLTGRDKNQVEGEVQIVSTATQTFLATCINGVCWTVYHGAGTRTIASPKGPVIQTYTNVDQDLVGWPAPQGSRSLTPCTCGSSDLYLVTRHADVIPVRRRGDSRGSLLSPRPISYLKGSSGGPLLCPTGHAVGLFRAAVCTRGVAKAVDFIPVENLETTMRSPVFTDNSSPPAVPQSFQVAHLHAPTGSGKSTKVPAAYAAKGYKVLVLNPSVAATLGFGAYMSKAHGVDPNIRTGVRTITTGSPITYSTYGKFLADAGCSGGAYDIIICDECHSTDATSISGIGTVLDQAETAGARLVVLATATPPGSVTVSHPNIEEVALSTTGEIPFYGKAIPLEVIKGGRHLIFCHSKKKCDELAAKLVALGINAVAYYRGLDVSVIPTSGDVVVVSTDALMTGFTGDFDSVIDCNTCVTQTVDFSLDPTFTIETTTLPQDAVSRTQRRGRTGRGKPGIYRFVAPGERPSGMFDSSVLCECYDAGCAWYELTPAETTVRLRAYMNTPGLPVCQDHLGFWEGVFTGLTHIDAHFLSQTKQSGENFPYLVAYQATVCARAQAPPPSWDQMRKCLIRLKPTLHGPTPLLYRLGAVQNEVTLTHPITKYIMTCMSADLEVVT

In the case of `C=CC1C[C@]1(NC(=O)[C@@H]1C[C@@H](Oc2cc(-c3ccccc3)nc3cc(OC)ccc23)CN1C(=O)[C@@H](NC(=O)OC(C)(C)C)C(C)(C)C)C(=O)NS(=O)(=O)C1(C)CC1` (stereo in doubt) [Compound 1, (1-{4-(7-Methoxy-2-phenylquinolin-4-yloxy)-2-[1-(1-methylcyclopropanesulfonylaminocarbonyl)-2-vinylcyclopropylcarbamoyl]pyrrolidine-1-carbonyl}-2,2-dimethylpropyl)carbamic acid tert-butyl ester], the IC50 in assay [1] (IC50 against the NS3/4A BMS strain in the enzyme assay, BMS strain) was 1.8 nM; in assay [1] (IC50 range, NS3/4A BMS Strain) it was less than 50 nM. Further, the EC50 in assay [2] (Huh-7, 96 h, Huh7 cells, 4 days, read-out: EC50 value in the replicon assay) was 13.9 nM; in assay [2] (Huh-7, HCV replicon, read-out: EC50 range) it was less than 50 nM.

The term IC50 denotes the concentration that inhibits the measured activity by half. As a reminder, the EC50 is the concentration giving half of the maximal effect.
